# Results: patent EP1028947B1, “H3 RECEPTOR LIGANDS OF THE PHENYL-ALKYL-[…]” (SCHERING CORPORATION, priority 1997, dated 1999)
# How the values were obtained:
# [1] = Blood levels of the compound (no method described); format: in vivo; conditions: compared with the preferred compounds of WO 95/14007; statement in words, no data
# H3 receptors = molecular target: T1, H3 receptors (Cavia porcellus, UniProt Q9JI35); test: H3-Receptor Binding Assay; conditions: guinea pig brain membranes; 3 nM [3H]R-a-methylhistamine or 3 nM [3H]Na-methylhistamine; 30°C for 30 min; HCl salt of the compound
# T1 construct: The source of the H3 receptors in this experiment was guinea pig brain; from tissue; host or cells: guinea pig brain membranes
# Method: H3-Receptor Binding Assay
# The source of the H3 receptors in this experiment was guinea pig brain. The animals weighed 400-600 g. The brain tissue was homogenized using a Polytron in a solution of 50 mM Tris, pH 7.5. The final concentration of tissue in the homogenization buffer was 10% w/v. The homogenates were centrifuged at 1,000 x g for 10 min. in order to remove clumps of tissue and debris. The resulting supematants were then centrifuged at 50,000 x g for 20 min. in order to sediment the membranes, which were next washed three times in homogenization buffer (50,000 x g for 20 min. each). The membranes were frozen and stored at -70°C until needed.
# The compound to be tested was dissolved in DMSO and then diluted into the binding buffer (50 mM Tris, pH 7.5) such that the final concentration was 2 µg/ml with 0.1% DMSO. Membranes were then added (400 µg of protein) to the reaction tubes. The reaction was started by the addition of 3 nM [^3H]R-a-methylhistamine (8.8 Ci/mmol) or 3 nM [^3H]N^a-methylhistamine (80 Ci/mmol) and continued under incubation at 30°C for 30 min. Bound ligand was separated from unbound ligand by filtration, and the amount of radioactive ligand bound to the membranes was quantitated by liquid scintillation spectrometry. All incubations were performed in duplicate and the standard error was always less than 10%. The Compound was serially diluted to determine a Ki (nM). […]
# T1 sequence (Q9JI35 whole entry): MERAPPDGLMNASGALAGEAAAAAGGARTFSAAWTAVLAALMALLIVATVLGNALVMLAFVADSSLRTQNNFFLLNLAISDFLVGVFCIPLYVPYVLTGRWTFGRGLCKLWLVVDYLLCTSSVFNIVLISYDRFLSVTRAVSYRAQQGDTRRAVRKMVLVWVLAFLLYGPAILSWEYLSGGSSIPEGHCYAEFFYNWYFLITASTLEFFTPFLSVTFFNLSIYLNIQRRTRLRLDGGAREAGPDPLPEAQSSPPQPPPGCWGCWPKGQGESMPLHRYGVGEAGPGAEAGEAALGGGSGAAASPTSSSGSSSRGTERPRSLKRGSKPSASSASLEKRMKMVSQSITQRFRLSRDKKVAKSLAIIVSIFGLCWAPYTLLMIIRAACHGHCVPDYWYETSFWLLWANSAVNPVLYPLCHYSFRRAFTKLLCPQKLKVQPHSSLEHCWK
compound,measurement,setting,value
O=C(NCc1ccc(Cc2c[nH]cn2)cc1)Nc1cc(Cl)cc(Cl)c1 [compound of the present invention],blood levels of the compound,[1],higher blood levels
same,Ki,H3 receptors,4 nM
